Experimental data from US11547696B2, “Methods and compositions for treatment of myelodysplastic syndromes and/or acute myeloid leukemias” (Children's Hospital Medical Center, priority 2016, dated 2023).
Entries after “also recorded” stand apart in the source; their conditions may differ. Read-outs that look alike come from different tables or passages of the source.

Assays:
[1] = test system: NFkB and interferon signaling in AML/MDS cells; assay: NFkB and interferon signaling in AML/MDS cells; assay type: cell-based; details: for NFkB signaling: AML cells
[2] = test system: TLR mediated NFkB activity; assay: TLR mediated NFkB activity; assay type: cell-based; details: for TLR mediated NFkB signaling: AML cells
AML/MDS cells [3] = assay: Proliferation of AML/MDS cells; assay type: cell-based
AML/MDS cells [4] = assay: Clonogenic potential of AML/MDS cells; assay type: cell-based
AML/MDS cells [5] = assay: Cell cycle of AML/MDS cells; assay type: cell-based
AML/MDS cells [6] = assay: Cell death of AML/MDS cells; assay type: cell-based
AML/MDS cells [7] = assay: DNA damage in AML/MDS cells; assay type: cell-based
normal HSPC = assay: Clonogenic capacity of normal HSPC; assay type: cell-based
MDS/AML cells [8] = assay: Cellular metabolic activity of MDS/AML cells; assay type: cell-based
TRAF6 = TRAF6 protein expression; assay type: cell-based; details: rescued by inhibition of the proteasome
MDSL cells [9] = assay: RNA sequencing / expression in MDSL cells; assay type: cell-based
From the text: (§1) To identify the molecular basis of UBE2N inhibition, Applicant performed a global ubiquitin screen for changes in ubiquitinated substrates and gene expression profiling by RNA sequencing. For the ubiquitin screen, K63 ubiquinated proteins were immunopreciptated from MDSL cells upon pharmacologic inhibition of UBE2N, followed by mass spectrometry analysis.

MDSL cells [10] = assay: Global ubiquitin screen in MDSL cells; assay type: cell-based
From the text: as §1

UBE2N [11] = biological target: T1, UBE2N (Homo sapiens, UniProt P61088); assay: Direct binding to UBE2N (Michael-Addition reaction); details: through a Michael-Addition reaction
T1 construct: endogenous in cells
T1 sequence (P61088 1-152): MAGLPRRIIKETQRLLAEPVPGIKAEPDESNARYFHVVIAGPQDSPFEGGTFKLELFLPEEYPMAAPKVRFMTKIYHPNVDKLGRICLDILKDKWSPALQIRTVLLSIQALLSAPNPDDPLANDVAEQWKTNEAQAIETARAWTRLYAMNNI

AML cells = assay: Viability of AML cells; assay type: cell-based
MOLM-13 and THP-1 cells = assay: DNA damage in MOLM-13 and THP-1 cells; assay type: cell-based
UBE2N [12] = biological target: T1, UBE2N; assay: UBE2N ubiquitination at Lysine (K)-92
UBE2N active site mutant = assay: Inhibition of NFkB with UBE2N active site mutant; assay type: cell-based
DDB1 = DDB1 ubiquitination following UBE2N inhibition; assay type: cell-based; details: following inhibition of UBE2N
From the text: as §1
(§2) One substrate identified in NSC697923-treated MDSL cells by the ubiquitin screen is DDB1, a component of the CUL4-CRBN E3 ligase complex targeted by Lenalidomide (LEN). […] LEN has shown encouraging results in del(5q) MDS patients (“deletion 5q (del 5q) MDS” in which part of chromosome 5 is missing), but its effects are limited in other cytogenetic subtypes of MDS or AML. Therefore, the identification of molecular targets that can enhance or extend the use of LEN in a broader spectrum of patients is desired Applicant explored the possibility of a cooperative effect of LEN and NSC697923 on MDS/AML cells. […] As such, UBE2N is a promising target for extending the use of LEN to other subtypes of MDS/AML.

MDS/AML cells [13] = assay: Targeting MDS/AML cells in vivo
primary MDS stem cells = assay: Clonogenic potential of primary MDS stem cells; assay type: cell-based
[14] = test system: MDS/AML cell lines and patient samples; assay: Combination with lenalidomide on MDS/AML cell lines and patient samples in vitro; assay type: cell-based; details: MDS/AML cells
From the text: as §2

normal CD34+ cells = assay: Function of normal CD34+ cells in the presence of lenalidomide; assay type: cell-based

Row | direct binding to UBE2N (UBE2N [11]) | Structure (SMILES) | NFkB signaling [1] | TLR mediated NFkB signaling [2] | proliferation (AML/MDS cells [3]; AML cells) | clonogenic potential (AML/MDS cells [4]; AML cells) | viability (AML cells) | DNA damage (MOLM-13 and THP-1 cells) | UBE2N ubiquination at Lysine (K)-92 (UBE2N [12]) | sensitivity of UBE2N active site mutant to inhibition of NFkB (UBE2N active site mutant) | DDB1 ubiquination (DDB1) | further results
1 |  | Cc1ccc(S(=O)(=O)c2ccc([N+](=O)[O-])o2)cc1 [NSC697923] |  |  |  |  |  |  |  |  |  | NFkB and interferon signaling ([1]; AML/MDS cells, listed as NSC23): inhibits NKkB and interferon signaling; also recorded: inhibits NFkB and interferon signaling; TLR mediated NFkB activity [2]: inhibits TLR mediated NFkB activity; proliferation (AML/MDS cells [3]; AML/MDS cells): reduces proliferation; clonogenic potential (AML/MDS cells [4]; AML/MDS cells): reduces proliferation and clonogenic potential; clonogenic capacity (AML/MDS cells [4]; MDSL/AML cell lines and primary cells): reduced the clonogenic capacity; cell cycle arrest (AML/MDS cells [5]): induced a G2/M cell cycle arrest; cell cycle arrest (AML/MDS cells [5]; listed as NSC23): induces cell cycle arrest in mitosis; cell death (AML/MDS cells [6]): increased cell death; cell death (AML/MDS cells [6]; listed as NSC23): cell death; DNA damage (AML/MDS cells [7]): induces DNA damage; effect on normal HSPC (clonogenic capacity) (normal HSPC): not significantly affecting normal HSPC; cellular metabolic activity (MDS/AML cells [8]): reduced the cellular metabolic activity; TRAF6 protein expression (TRAF6): dramatic loss of TRAF6 protein expression; expression of APC/CDC20 substrates (i.e., cyclin B1) (MDSL cells [9]): increased expression of APC/CDC20 substrates; gene expression changes by RNA sequencing (MDSL cells [9]; MDSL cells): expression changes in genes involved in mRNA processing, cell cycle, and glycolysis; protein ubiquination (MDSL cells [10]): Differential protein ubiquination
2 | directly bind UBE2N | Cc1ccc(S(=O)(=O)/C=C/C#N)cc1 [UC64] | inhibits NFkB signaling | inhibits TLR mediated NFkB signaling | reduces their proliferation | reduces their clonogenic potential | reduces their viability | does not cause DNA damage | reduces UBE2N ubiquination at Lysine (K)-92 | less sensitive | differentially ubiquinated | 
3 | directly bind UBE2N | Cc1ccc(S(=O)(=O)c2ccc([N+](=O)[O-])o2)cc1 [UC65] | inhibits NFkB signaling | inhibits TLR mediated NFkB signaling | reduces their proliferation | reduces their clonogenic potential | reduces their viability | does not cause DNA damage | reduces UBE2N ubiquination at Lysine (K)-92 | less sensitive | differentially ubiquinated | effectiveness against MDS/AML cells in vivo (MDS/AML cells [13]): effective against targeting MDS/AML cells in vivo; clonogenic potential (primary MDS stem cells): reduces their clonogenic potential
4 |  | Nc1cccc2c1CN(C1CCC(=O)NC1=O)C2=O (stereo not shown) [lenalidomide] |  |  |  |  |  |  |  |  |  | cytotoxic effects of lenalidomide with UBE2N inhibition [14]: enhances the cytotoxic effects; function of normal CD34+ cells with UBE2N inhibition in the presence of lenalidomide (normal CD34+ cells): does not affect the function of normal CD34+ cells
